{"source": "patent US10934326B2", "about": "“Peripheral modifications on pocket-redesigned vancomycin analogs synergistically improve antimicrobial potency and durability” (priority 2016, dated 2021)", "key": {"[1]": {"test_system": "vancomycin-resistant Enterococcus faecalis (VanA VRE, BM4166)", "conditions": "BM 4166; previously reported data; cited from earlier work"}, "[2]": {"test_system": "VanA VRE (E. faecalis BM 4166 and E. faecium ATCC BAA-2317)", "test": "Cell wall permeability assay (propidium iodide uptake)", "type": "cell-based, Enterococcus faecalis; Enterococcus faecium", "conditions": "10 μM compound"}, "[3]": {"test_system": "VanA VRE (E. faecalis BM 4166 and E. faecium ATCC BAA-2317)", "test": "Cell wall biosynthesis inhibition assay (accumulation of UDPMurNAc-pp 19)", "type": "cell-based, Enterococcus faecalis; Enterococcus faecium", "conditions": "35 μg/mL, tetracycline pretreated VanA VRE, 30 minutes, 37° C.", "from_the_text": "The inhibition of bacterial cell wall synthesis was established in an assay that quantitates the accumulation of the peptidoglycan precursor UDP-N-acetyl-muramyl-depsipentapeptide (Compound 19, UDPMurNAc-pp), resulting from inhibited cell wall incorporation following antibiotic treatment. […] This procedure was reduced in scale and modified to enlist reverse-phase HPLC separation, UV detection, and calibration curve determination of the amount of isolated 19, permitting use with limited sample sizes. A larger scale isolation and full characterization of 19 provided the material needed to establish a linear calibration curve.\nThe bacterial suspension was heated at 100° C. for 15 minutes to release cytosolic 19. The entire supernatant was analyzed by semi-preparative reverse-phase HPLC with a single injection and the amount of 19 was quantitated with use of the calibration curve.\nCultures of vancomycin-resistant Enterococcus faecalis (VanA VRE, BM4166) and Enterococcus faecium (VanA VRE, ATCC BAA-2317) were inoculated and grown in an orbital shaker at 37° C. in 100% brain-heart infusion broth for 12 hours. The above bacterial solution was subjected to a subculture to obtain fresh mid-log phase bacterial cells (total volume of bacterial suspension=5 mL, incubation time=6 hours, OD600=0.6). […] Vancomycin analogues were added and the mixture was incubated at 37° C. for a further 30 minutes.\nAfter the bacteria were harvested (3000 rpm, 4° C., 20 minutes), this bacterial precipitate was washed and resuspended in 5 mM glucose and 5 mM HEPES buffer (500 μL, 1:1, pH=7.2). This bacterial suspension was heated at 100° C. for 15 minutes and centrifuged (13000 rpm, 25° C., 10 minutes). […] [*****Allen et al., Antimicrob. Agents Chemother. 1996, 40(10):2356-2362]; Liu et al., J. Am. Chem. Soc. 2001, 123:9916-9917.] The amount of UDP Mur N-Ac pentapeptide (19) was quantified by use of calibration curves for E. faecalis BM4166, and for E. faecium ATCC BAA-2317 based on the area under the curve (AUC)."}, "[4]": {"test_system": "Enterococcus faecium (VanA VRE, ATCC BAA-2317)", "conditions": "previously reported data; cited from earlier work"}, "[5]": {"test_system": "methicillin and oxacillin-resistant Staphylococcus aureus subsp. aureus (MRSA strain ATCC 43300)", "conditions": "previously reported data; cited from earlier work"}, "[6]": {"test_system": "VSSA, MRSA, VanA and VanB VRE", "conditions": "cited from earlier work"}, "[7]": {"test_system": "vancomycin-resistant Enterococcus faecalis (VanB VRE, strain ATCC 51299)", "conditions": "previously reported data; cited from earlier work"}, "[8]": {"test_system": "vancomycin-sensitive Staphylococcus aureus (VSSA strain ATCC 25923)", "conditions": "previously reported data; cited from earlier work"}}, "data": [{"smiles": "CN[C@H](CC(C)C)C(=O)N[C@H]1C(=O)N[C@@H](CC(N)=O)C(=O)N[C@H]2C(=S)N[C@@H]3C(=O)N[C@H](C(=O)N[C@H](C(=O)O)c4cc(O)cc(O)c4-c4cc3ccc4O)[C@H](O)c3ccc(c(Cl)c3)Oc3cc2cc(c3OC2OC(CO)C(O)[C@H](O)[C@@H]2O[C@H]2CC(C)(NCc3ccc(-c4ccc(Cl)cc4)cc3)[C@H](O)[C@H](C)O2)Oc2ccc(cc2Cl)[C@H]1O", "note": "(some centres unmarked) [Compound 6]", "values": [{"measurement": "Antimicrobial Activity, MIC, VanA E. faecalis", "setting": "[1]", "result": 4, "unit": "µg/mL"}, {"measurement": "induced cell membrane permeability (propidium uptake)", "setting": "[2]", "result": "Neither compound significantly impacts membrane permeability"}, {"measurement": "inhibition of bacterial cell wall synthesis (accumulation of 19)", "setting": "[3]", "result": "inhibit cell wall biosynthesis to a similar extent"}, {"measurement": "Antimicrobial Activity, MIC, VanA E. faecium", "setting": "[4]", "result": 4, "unit": "µg/mL"}, {"measurement": "Antimicrobial Activity, MIC, MRSA S. aureus", "setting": "[5]", "result": 2, "unit": "µg/mL"}, {"measurement": "MICs (range over panel)", "setting": "[6]", "result": "2 to 4", "unit": "µg/mL"}, {"measurement": "Antimicrobial Activity, MIC, VanB E. faecalis", "setting": "[7]", "result": 2, "unit": "µg/mL"}, {"measurement": "Antimicrobial Activity, MIC, sensitive S. aureus", "setting": "[8]", "result": 2, "unit": "µg/mL"}]}]}
